Data on three compounds can be found in ChEMBL document CHEMBL5113486, “Hit-to-lead optimization of novel phenyl imidazole carboxamides that are active against Leishmania donovani” (Eur J Med Chem, 2022).

Usually CC50 stands for the concentration that lowers cell viability or growth by half. For orientation: half-life means how long it takes for the measured level to halve. In general, IC50 refers to the concentration needed to halve the response being measured.

Converted amounts (≈) assume the structure as drawn.

The nature of series [1]: Cytotoxicity against human THP-1 cells assessed as cell growth inhibition. The class given is toxicity, cell-based.
Series [2] in a line: Kinetic solubility of the compound at pH 6.5 by nephelometry. In kind it is physicochemical. Particulars: buffer, read-out: Kinetic_solubility.
Series [3] can be described thus: Metabolic stability in human liver microsomes assessed as half-life. The class given is ADME, Microsome. A general note: Liver microsomes are vesicles of endoplasmic reticulum, rich in cytochrome P450 enzymes.
A short description of series [4]: Selectivity index, ratio of CC50 for cytotoxicity against human THP-1 cells to IC50 for antileishmanial activity against Leishmania donovani infected in human THP-1 cells. To be noted: read-out: Ratio CC50/IC50. In kind it is toxicity, cell-based.
The nature of series [5]: Kinetic solubility of the compound at pH 2.0 by nephelometry. The class given is physicochemical. To be noted: buffer, read-out: Kinetic_solubility.
Series [6] concerns HepG2. The experiment in a line: Mitotoxicity in human HepG2 cells assessed as reduction in metabolic activity under galactose containing medium by crabtree effect assay. In kind it is toxicity, cell-based.
Series [7] is described as follows: (§1) Cytotoxicity against human HepG2 cells assessed as inhibition of cell growth under glucose containing medium by crabtree effect assay. In kind it is toxicity, cell-based. Particulars: HepG2 cells.
Series [8] is described as follows: Metabolic stability in human liver microsomes assessed as intrinsic clearance measured per mg protein. The class given is ADME, Microsome. To be noted: read-out: CLH.
Series [9] can be described thus: Drug degradation in human liver microsomes. In kind it is ADME, Microsome. To be noted: read-out: Drug degradation.
For series [10], the system named is HepG2. In words: Cytotoxicity against human HepG2 cells assessed as inhibition of cell growth under galactose containing medium by crabtree effect assay. The class given is toxicity, cell-based.
A short description of series [11]: Metabolic stability in mouse liver microsomes assessed as intrinsic clearance measured per mg protein. The class given is ADME, Microsome. Particulars: read-out: CLH.
For series [12], the system named is HepG2. In words: Mitotoxicity in human HepG2 cells assessed as reduction in metabolic activity under glucose containing medium by crabtree effect assay. In kind it is toxicity, cell-based.
A further series concerns Leishmania donovani. The experiment in a line: Antileishmanial activity against Leishmania donovani infected in human THP-1 cells assessed as growth inhibition by intramacrophage assay. In kind it is functional, organism-based.
The nature of series [13]: Metabolic stability in mouse liver microsomes assessed as half life. The class given is ADME, Microsome.
Series [14] is described as follows: Stability in mouse liver microsomes assessed as parent compound remaining measured at 2 mins. The class given is ADME, Microsome.
Series [15] can be described thus: Cytotoxicity against human HepG2 cells assessed as cell growth inhibition at 100 uM. In kind it is toxicity, cell-based. To be noted: read-out: Activity.
Series [16] concerns HepG2. The description is as §1. To be noted: hepg2. The class given is toxicity, cell-based.

With `Cn1c(-c2cccc(Cl)c2)cnc1NC(=O)c1ncc[nH]1`, the CC50 in [1] was found to be 55 µM; in series [7] it was 17 µM. The solubility kinetic in series [2] was 3.1 µg/mL (≈ 10.3 µM); in series [5], 12.5 µg/mL (≈ 41.4 µM). The half-life in series [3] was 3.82 h; in [13] it was 1.37 h. Further, the selectivity ratio in series [4] came out at 74. The Activity result with HepG2 [6], in the series on HepG2 [10] and in the series with HepG2 [12] was “Non-Toxic” each time. For the same compound, the microsomal CLint in series [8] worked out at 8 µL/min/mg; in [11], 21 µL/min/mg. Moreover, the metabolised in [9] is below 15%. In addition, in the series on Leishmania donovani, the IC50 is 0.74 µM.

Turning to `Cn1c(-c2ccccc2)cnc1NC(=O)c1ncc[nH]1`, the CC50 in series [1] was above 100 µM. For the same compound, the results for the half-life in [3] and in series [13] were 1.47 h and below 0.0333 h, respectively. The selectivity ratio in [4] was above 16. Moreover, in series [14], the Stability result is “Unstable”. Further, the results for the microsomal CLint in series [8] and in series [11] were 20 µL/min/mg and above 866 µL/min/mg, respectively. Moreover, the inhibition at 100 µM in series [15] is below 50%. In addition, the IC50 in the series with Leishmania donovani came out at 6.4 µM.

Consider `Cn1c(-c2ccc(Cl)cc2)cnc1NC(=O)c1ncc[nH]1`, for which the CC50 in series [1] is 52 µM. The results for the solubility kinetic in series [2] and in [5] were 25 µg/mL (≈ 82.9 µM) and 50 µg/mL (≈ 166 µM), respectively. Also, the half-life in [3] is above 4.25 h; in [13], 0.717 h. For the same compound, the selectivity ratio in series [4] is 100. The Activity result with HepG2 [6], in the series on HepG2 [16], with HepG2 [10] and with HepG2 [12] was “Non-Toxic” each time. For the same compound, the results for the microsomal CLint in [8] and in [11] were below 7 µL/min/mg and 41 µL/min/mg, respectively. For the same compound, in series [9], the metabolised is below 15%. Moreover, the IC50 in the series with Leishmania donovani turned out to be 0.52 µM.
